Laboratory results taken from PubChem BioAssay AID449764 (Southern Research Specialized Biocontainment Screening …, 2010).

Tested on: Mycobacterium tuberculosis H37Rv growth inhibition, no glycerol
Experiment: Mycobacterium tuberculosis H37Rv growth inhibition, no glycerol, confirmatory dose response (AID 449764);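 note: growth read after 7 days of incubation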
Details: for IC90: measured here: IC90 growth inhibition

Row | Compound | IC50 | IC90
1 | O=C(N/N=C\C=C\c1ccc([N+](=O)[O-])o1)c1cccs1 | 10.8 µM | 15.1 µM
2 | COc1ccc(NC(=O)/C(Cl)=C(/Cl)S(=O)Cc2ccc(C)cc2)cn1 (configuration not stated) | < 0.2 µM | 0.36 µM
3 | CCOC(=O)COc1cc([N+](=O)[O-])cc2cccnc12 | 30.5 µM | 46.4 µM
4 | CCNc1nc(Nc2ccc(C)c(Cl)c2)c2cnn(C)c2n1 | 70 µM | > 100 µM
5 | O=C1Nc2cc(C(=O)NCCCN3CCOCC3)ccc2S/C1=C/c1cccc(Cl)c1 | 32.9 µM | 44.9 µM
6 | CCOC(=O)C1CCN(c2nc3cc(OC)ccc3cc2C#N)CC1 | 83.5 µM | > 100 µM
7 | Cc1ccc(C(=O)C[n+]2cc(-c3ccc(C)cc3)n3c2CCCCC3)cc1 | 22.5 µM | 25.4 µM
8 | Cc1ccc(C#CC[N+]2(CC#Cc3ccc(C)cc3)CCCCC2)cc1 | 21.4 µM | 24.8 µM
9 | O=C(OCC(=O)c1c[nH]c2ccccc12)c1cc(Br)ccc1O | 11.2 µM | 13.1 µM
10 | O=C(N[C@H]1CCC(=O)N(CCSc2ccc(Br)cc2)CC1)OCc1ccccc1 | 32.9 µM | 46.6 µM
11 | CN(CC(=O)Nc1ccc(F)c(F)c1F)c1cnccn1 | 9.88 µM | 13.4 µM
12 | CC(C)(C)c1ccc(C(=O)NNc2cc(N3CCCCC3)nc(N3CCCCC3)n2)cc1 | 62.7 µM | 74.4 µM
13 | CCCCn1nc(C(=O)N[C@@H](CCSC)c2nc3ccccc3[nH]2)c2ccccc2c1=O | 46.9 µM | > 100 µM
14 | COc1ccc(C(=O)Cn2nc(CNc3ccc(Br)cc3)[n+]3c2CCCCC3)cc1 | 12.3 µM | 14.1 µM
15 | OC(COC(c1ccc(Cl)cc1)c1ccc(Cl)cc1)CN1CCc2ccccc2C1 (configuration not stated) | 20.7 µM | 27.6 µM
16 | O=C(CSCc1ccc([N+](=O)[O-])cc1)N/N=C/c1ccncc1 | 11.3 µM | 26 µM
17 | O=[N+]([O-])c1c(C(Cl)Cl)nn(-c2ccc(Cl)cc2)c1N1CCCCC1 | 21.2 µM | 23.3 µM
18 | CCOc1cc2c3c(c1)C1(C(=O)N3C(C)(C)CC2C)C(C#N)=C(N)N2C(=C1C#N)Nc1ccccc12 (configuration not stated) | 37.8 µM | > 100 µM
19 | C=CCN(CC(=O)c1sc(C(=O)OCC)nc1C)c1cccc(Br)c1 | 20.8 µM | 32.6 µM
20 | CCOC(=O)N1CCN(Cc2cc(Cl)c3cccnc3c2O)CC1 | 21.8 µM | 24.7 µM
21 | C#CCOCCOCCOCCNc1nc(N2CCN(C(=O)C(Cc3ccc(O)cc3)n3cc(C(N)CC(C)C)nn3)CC2)nc(N2CCN(C(=O)C(Cc3cc4ccccc4[nH]3)n3cc(C(N)Cc4ccc(O)cc4)nn3)CC2)n1 (configuration not stated) | 16.9 µM | 23.8 µM
22 | COc1cc(OC)c(OC)cc1CCC(C)NCCC(c1ccccc1)c1ccccc1 (configuration not stated) | 23.4 µM | 26.7 µM

Row | Compound | IC50 | IC90
23 | CC1CCCC(C)N1/N=C/c1c[nH]c2ccc(Br)cc12 (configuration not stated) | 22.7 µM | 29.1 µM
24 | CCCCOc1ccc(-c2nnn(C(C)C(=O)OCC)n2)cc1 (configuration not stated) | 2.8 µM | 8.73 µM
25 | O=C(NCC1CC1)c1cc([N+](=O)[O-])cc([N+](=O)[O-])c1 | 6.57 µM | 11.2 µM
26 | CCC(=O)NC(=S)Nc1ccc(NC(=O)COc2ccc(Cl)cc2Cl)cc1 | 79.3 µM | > 100 µM
27 | Cc1onc(-c2c(F)cccc2Cl)c1C(=O)O/N=C(\N)c1ccc([N+](=O)[O-])o1 | 14.4 µM | 27.6 µM
28 | Cn1c(=O)n(Cc2ccccc2)c(=O)c2c1nc1n2CCCN1C1CCCCC1 |  | > 100 µM
29 | Cc1ccc2nc(-c3ccncc3)cc(-c3ccccc3)c2c1 | 43.8 µM | 48.6 µM
30 | c1ccc(CN2CCC3(CCCc4ccccc43)CC2)cc1 | 12.2 µM | 15.8 µM
31 | CN1C(=O)/C(=C/c2cccc(Cl)c2)Sc2ccc(C(=O)N3CCCC3)cc21 | 20.6 µM | 49.9 µM
32 | CCOC(=O)c1cc(-c2ccc(N3CCOCC3)cc2)nn1-c1ccccc1 | 27.9 µM | 58.1 µM
33 | COc1cc(NC(=O)c2ccc(COc3ccccc3Br)o2)cc(OC)c1OC | 67 µM | > 100 µM
34 | O=C(/C=C/c1cccnc1)c1cccc(O)c1 | 22.4 µM | 24.1 µM
35 | CCOC(=O)C1CCN(c2cc3c(cc2NC(=O)c2ccccc2Cl)n(C)c(=O)n3C)CC1 | 44.8 µM | 51.2 µM
36 | COC(=O)c1cc(-c2cccc(OC)c2)on1 | 10.5 µM | > 100 µM
37 | O=C(/C=C/c1ccc(O)c([N+](=O)[O-])c1)c1ccc2ccccc2c1 | 24 µM | > 100 µM
38 | CCOC(=O)COc1ccc(/C=C2\NC(=S)N(CC)C2=O)cc1 | 3.1 µM | 3.44 µM
39 | COc1ccc(/C=C/CN2CCC(CO)(Cc3ccccc3Cl)CC2)cc1 | 24.3 µM | 27.5 µM
40 | Cc1ccc(NC(=O)C2=C(O)CCn3c2nc2ccccc23)cc1 | 13.5 µM | > 100 µM
41 | COC(=O)C1=C(C)N(Cc2ccccc2)C(=NCc2cccc(Cl)c2)N[C@H]1c1ccccc1 | 20.4 µM | 26.6 µM
42 | CC(=O)c1ccc(-n2cc(-c3ccc(C(C)(C)C)cc3)[n+]3c2SCCC3)cc1 | 20.3 µM | 26.9 µM
43 | Cc1ccc(-c2csc(N3CCN(CCCn4c(-c5ccncc5)nc5ccccc54)CC3)n2)cc1 | 29.7 µM | 48.3 µM
44 | N#CC(C#N)=C(N)CSc1cccc[n+]1[O-] | 43.6 µM | 49 µM

Row | Compound | IC50 | IC90
45 | Cc1ccc(C(=O)N/C(=C/c2ccc(-c3cc(C(F)(F)F)ccc3Cl)o2)C(=O)NCc2cccnc2)cc1 | 73.6 µM | > 100 µM
46 | O=C(CCC(=O)OCc1ccc(C(=O)Oc2ccc(Cl)cc2)cc1)Nc1ccccc1 | 80.2 µM | > 100 µM
47 | CCc1cc(C(=O)NNC(=O)CCl)sc1C | 5.03 µM | 7.55 µM
48 | Cc1ccc(NC(=O)COC(=O)CCc2c[nH]c3ccccc23)cc1[N+](=O)[O-] | 2.29 µM | 6.16 µM
49 | CCOc1ccc(NC(=O)CSc2nc(O)c(C)c(=O)n2-c2ccc(F)cc2)cc1 | 34.7 µM | 59.2 µM
50 | C=CC[n+]1ccn(-c2nc3ccccc3nc2[N-]S(=O)(=O)c2cccs2)c1 | 42.6 µM | 48.1 µM
51 | CN1C2CCC1/C(=C/c1ccccn1)C(=O)/C2=C\c1ccccn1 | 23.4 µM | 26.8 µM
52 | CC(C)(C)c1ccc(-c2nc(-c3ccncc3)no2)cc1 | 35.2 µM | 47.6 µM
53 | CCC1C(c2ccccc2)N(C)C(c2ccccc2)CC1(O)c1ccccc1 (configuration not stated) | 23.9 µM | 27.6 µM
54 | CC(C)(C)OC(=O)NNC(=S)NC1CCCCC1 |  | > 100 µM
55 | CCOC(=O)c1c(CC(C)C)csc1NC(=O)CCl | 2.66 µM | 11.2 µM
56 | O=C(c1cc2cc(F)ccc2[nH]1)N(Cc1cccnc1)CC1CCCN(C2CCCCC2)C1 (configuration not stated) | 42.6 µM | 46.1 µM
57 | CCOC(=O)COc1ccc(C2CC(C)=NN2c2ccccc2)cc1 (configuration not stated) | 8.21 µM | 12.9 µM
58 | Clc1ccc2c(c1)C(c1ccccc1Cl)=NCc1nnc(N3CCN(CCOc4ccccc4)CC3)n1-2 | 34.8 µM | 46.1 µM
59 | CCOC(=O)Cn1nc(-c2ccccc2)nc1-c1ccccc1 | 13.1 µM | 29.4 µM
60 | COc1nc(-c2ccccc2)cc(-c2ccc(OC)c(OC)c2)n1 | 86.4 µM | > 100 µM
61 | Oc1[nH]c2ccccc2c1N=NC(=S)N1CCOCC1 | 22.9 µM | 24.3 µM
62 | O=C(NCc1ccccn1)C(=O)Nc1nc(C23CC4CC(CC(C4)C2)C3)cs1 | 6.5 µM | 14.7 µM
63 | COc1ccc(NC(C)C(=O)Nc2ccc(C(C)(C)C)cc2)cc1Cl (configuration not stated) | 94.1 µM | > 100 µM
64 | CCc1nnc(N/N=C/c2cc(C)c(C)cc2C)n1N | 5.95 µM | 6.55 µM
65 | CSC(=S)NCc1cccnc1 | 29.1 µM | 41.9 µM
66 | CC(C)(C)NC(=O)[C@@H]1C[C@@H]2CCCC[C@@H]2CN1C[C@@H](O)[C@H](Cc1ccccc1)NC(=O)[C@H](CC(N)=O)NC(=O)c1ccc2ccccc2n1 | 32.9 µM | 52.8 µM

Row | Compound | IC50 | IC90
67 | Cc1[nH]c2ccc(OC(F)(F)F)cc2c1CCNCc1ccc(Cl)cc1 | 14.2 µM | 18.8 µM
68 | O=C(Nc1nnc(-c2ccccc2)o1)c1cc(-c2cccs2)nc2ccccc12 | 1.76 µM | 2.94 µM
69 | NC(=S)NNc1ccc(Cl)c(Cl)c1 | 7.82 µM | 12.1 µM
70 | O=c1cc(/C=C/c2ccccc2)oc2ccccc12 | 97.6 µM | > 100 µM
71 | CCOC(=O)c1nnc(-c2ccccc2)nc1Sc1ccccc1Cl | 90.6 µM | > 100 µM
72 | Cc1ccc(S(=O)(=O)/N=C(\CCl)N2CCOCC2)cc1 | 18.6 µM | 27.5 µM
73 | CCc1ccc(N=Nc2ccc(O)c3[nH]cnc23)cc1 | 40.7 µM | > 100 µM
74 | COc1cc(C(=O)/C=C/c2cccnc2)c([N+](=O)[O-])cc1OC | 17.5 µM | 26.2 µM
75 | COc1c[nH]n(C2CCCCC2)c(=O)c1=O | 24.1 µM | 27.6 µM
76 | CCCCCCCCNC(C)C(O)c1ccc(SC(C)C)cc1 (configuration not stated) | 25 µM | 26.5 µM
77 | COc1ccc(C2=CC(c3c(C)nn(-c4ccccc4)c3Cl)n3nnnc3N2)cc1OC (configuration not stated) | 94.1 µM | > 100 µM
78 | CCc1ccc(NCc2ccc(OC)c(Cn3ccnc3)c2)cc1 | 21.5 µM | 23.7 µM
79 | Cc1ccc(C(=O)Sc2cccccc2=O)cc1 | 1.53 µM | 2.12 µM
80 | CC1C/C(=C\c2cccnc2)C(=O)/C(=C/c2cccnc2)C1 (configuration not stated) | 5.16 µM | 8.18 µM
81 | O=[N+]([O-])c1cc(-c2ccc(/C=N\n3cnnc3)o2)cc([N+](=O)[O-])c1 | 45.5 µM | 49.9 µM
82 | COc1cc(/C=N/n2c(-c3ccc4c(c3)NC(=O)CO4)csc2=Nc2cccc(C)c2)ccc1O | 37.8 µM | > 100 µM
83 | CC1=C(/C=C/C(C)=C/C=C/C(C)=C/C(=O)Nc2ccc(O)cc2)C(C)(C)CCC1 | 44.2 µM | 64.7 µM
84 | CC(C)NC(=O)c1sc(=S)n2c1[nH]c(=O)c1ccc(C(=O)NCCc3ccc(Cl)cc3)cc12 | 0.73 µM | 0.83 µM
85 | O=C1CN(CC(=O)N2CCCCC2)c2ccccc2O1 | 24.8 µM | 27.1 µM
86 | O=C(O)/C=C/C(=O)Nc1ccc(-c2ccccc2)cc1 | 94.1 µM | > 100 µM
87 | O=C(Nc1cc(C(F)(F)F)ccc1-n1cncn1)c1ccc([N+](=O)[O-])o1 | 37 µM | 54.2 µM
